In US20240384268A1, “Oligonucleotides” (Hudson Institute of Medical Research, priority 2021, published 2024):

Target: T1, human TLR7 (Homo sapiens, UniProt Q9NYK1)
T1 construct: HA; host or cells: 293XL-hTLR7-HA (HEK293)
T1 sequence (Q9NYK1 27-1049): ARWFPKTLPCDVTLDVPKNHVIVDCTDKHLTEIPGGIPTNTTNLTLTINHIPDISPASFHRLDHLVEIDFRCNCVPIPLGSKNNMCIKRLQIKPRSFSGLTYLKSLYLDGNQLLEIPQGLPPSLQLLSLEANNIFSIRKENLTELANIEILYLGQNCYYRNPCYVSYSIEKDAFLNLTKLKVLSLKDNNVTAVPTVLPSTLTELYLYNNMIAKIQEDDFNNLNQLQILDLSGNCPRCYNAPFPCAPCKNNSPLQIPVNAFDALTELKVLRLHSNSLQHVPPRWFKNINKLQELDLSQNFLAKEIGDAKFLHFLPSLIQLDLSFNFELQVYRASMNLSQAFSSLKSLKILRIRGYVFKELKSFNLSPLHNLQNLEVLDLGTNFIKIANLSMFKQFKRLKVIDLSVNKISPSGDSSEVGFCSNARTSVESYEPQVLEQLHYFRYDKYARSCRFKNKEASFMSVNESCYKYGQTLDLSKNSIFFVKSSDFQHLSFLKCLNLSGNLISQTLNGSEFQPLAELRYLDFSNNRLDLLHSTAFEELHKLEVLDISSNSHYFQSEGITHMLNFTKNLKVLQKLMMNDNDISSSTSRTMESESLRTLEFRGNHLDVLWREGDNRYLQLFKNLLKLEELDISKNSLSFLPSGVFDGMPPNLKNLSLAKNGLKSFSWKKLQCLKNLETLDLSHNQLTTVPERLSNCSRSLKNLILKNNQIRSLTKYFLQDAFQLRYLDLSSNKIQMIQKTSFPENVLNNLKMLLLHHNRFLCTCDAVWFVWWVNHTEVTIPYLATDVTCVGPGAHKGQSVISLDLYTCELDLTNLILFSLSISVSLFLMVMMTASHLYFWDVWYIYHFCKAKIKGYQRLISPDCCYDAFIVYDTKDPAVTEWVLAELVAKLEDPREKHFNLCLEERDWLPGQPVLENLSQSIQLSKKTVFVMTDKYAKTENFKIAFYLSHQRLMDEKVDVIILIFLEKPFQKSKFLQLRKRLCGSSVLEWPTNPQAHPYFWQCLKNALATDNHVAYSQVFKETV
Assay: HEK-TLR7 NF-κB-luciferase reporter, R848 stimulation
Format: cell-based
Conditions: averaged NF-κB-Luciferase relative to R848 condition; for TLR7 100 nM: MOE-modified ASO at 100 nM; for TLR7 500 nM: MOE-modified ASO at 500 nM

Row | Sequence | TLR7 100 nM | TLR7 500 nM
1 | GAGGTCTTGGCTTCGTGGAG (antisense; 2'-MOE modified, pattern not given here) [MB21D1-523 MOE] | 0.419 | 0.095
2 | TAGTCAAGGGCATATCCTAC (antisense; 2'-MOE modified, pattern not given here) [HPRT-732 MOE] | 0.423 | 0.191
3 | GAACCACGTCTGCTCTAACA (antisense; 2'-MOE modified, pattern not given here) [CAMSAP1-1635 MOE] | 0.597 | 0.291
4 | GGTCCATACCCAAGGCATCC (antisense; 2'-MOE modified, pattern not given here) [CTNN2B-2446 MOE] | 0.364 | 0.096
5 | GGAGGTCTTGGCTTCGTGGA (antisense; 2'-MOE modified, pattern not given here) [MB21D1-524 MOE] | 0.434 | 0.091
6 | AATCCGCCCAAAGGGAACTG (antisense; 2'-MOE modified, pattern not given here) [HPRT-1027 MOE] | 0.691 | 0.521
7 | AGATCTGGCAGCCCATCAAC (antisense; 2'-MOE modified, pattern not given here) [CTNN2B-2516 MOE] | 0.500 | 0.201
8 | GTCCTTGCACGTGGCTTCGT (antisense; 2'-MOE modified, pattern not given here) [EGFR-1013 MOE] | 0.216 | 0.088
9 | TAGGCACTTTGCCTCCTTCT (antisense; 2'-MOE modified, pattern not given here) [EGFR-2859 MOE] | 0.455 | 0.205
10 | ATGTGATGGCCTCCCATCTC (antisense; 2'-MOE modified, pattern not given here) [HPRT-333 MOE] | 0.643 | 0.345
11 | GCGTGTCTGGAAGCTTCCTT (antisense; 2'-MOE modified, pattern not given here) [CTNN2B-809 MOE] | 0.415 | 0.134
12 | CAACACTTCGTGGGGTCCTT (antisense; 2'-MOE modified, pattern not given here) [HPRT-665 MOE] | 0.487 | 0.285
13 | GTGTCTTCATCGGCCCTGCC (antisense; 2'-MOE modified, pattern not given here) [CAMSAP1-2113 MOE] | 0.371 | 0.132
14 | ACAGTGTTGAGATACTCGGG (antisense; 2'-MOE modified, pattern not given here) [EGFR-3652 MOE] | 0.420 | 0.129
15 | GCGTATTATAGCCGATTAAC (antisense; 2'-MOE modified, pattern not given here) [NC1 2′MOE] | 0.565 | 0.265
16 | CAATGTGATGGCCTCCCATC (antisense; 2'-MOE modified, pattern not given here) [HPRT-335 MOE] | 0.451 | 0.279
17 | GGGAAAGGTTATGCAAGGTC (antisense; 2'-MOE modified, pattern not given here) [CTNN2B-916 MOE] | 0.599 | 0.163
18 | GCCGCTTTTCTGTCTGGTTC (antisense; 2'-MOE modified, pattern not given here) [CTNN2B-311 MOE] | 0.567 | 0.268
19 | ACTGACTGTCTTGAGGGTTC (antisense; 2'-MOE modified, pattern not given here) [MB21D1-1483 MOE] | 0.627 | 0.299
20 | TCGCACTTCAGTCTGAGCAG (antisense; 2'-MOE modified, pattern not given here) [MB21D1-719 MOE] | 0.574 | 0.241
21 | CAAGGCCCTTCGCACTTCTT (antisense; 2'-MOE modified, pattern not given here) [EGFR-1225 MOE] | 0.587 | 0.336
22 | GGAGATTTCAGAGCAGCTTC (antisense; 2'-MOE modified, pattern not given here) [EGFR-4885 MOE] | 0.330 | 0.088

Row | Sequence | TLR7 100 nM | TLR7 500 nM
23 | GGTGTCCTTGCACGTGGCTT (antisense; 2'-MOE modified, pattern not given here) [EGFR-1016 MOE] | 0.358 | 0.131
24 | GTGTCCTTGCACGTGGCTTC (antisense; 2'-MOE modified, pattern not given here) [EGFR-1015 MOE] | 0.377 | 0.212
25 | AACACTTCGTGGGGTCCTTT (antisense; 2'-MOE modified, pattern not given here) [HPRT-664 MOE] | 0.406 | 0.226
26 | CTGTGATCTTGACATGCTGC (antisense; 2'-MOE modified, pattern not given here) [EGFR-2790 MOE] | 0.449 | 0.206
27 | GTCCACATCCTGTGGCTCGT (antisense; 2'-MOE modified, pattern not given here) [CAMSAP1-2906 MOE] | 0.299 | 0.119
28 | GATGCTCCTCGGTCTCCCTT (antisense; 2'-MOE modified, pattern not given here) [CAMSAP1-1850 MOE] | 0.453 | 0.199
29 | CGTGTCTGGAAGCTTCCTTT (antisense; 2'-MOE modified, pattern not given here) [CTNN2B-808 MOE] | 0.541 | 0.350
30 | GAGTCTCTGGAGCTTCCTCT (antisense; 2'-MOE modified, pattern not given here) [CAMSAP1-2456 MOE] | 0.469 | 0.170
31 | GATGGCCTCCCATCTCCTTC (antisense; 2'-MOE modified, pattern not given here) [HPRT-329 MOE] | 0.678 | 0.336
32 | GGAGCTTCGAGGCCCCAGGC (MOE modified, pattern not given here) [MB21D1-616 MOE] | 0.392 | 0.179
33 | TTCTGCAGCTTCCTTGTCCT (antisense; 2'-MOE modified, pattern not given here) [CTNN2B-2136 MOE] | 0.183 | 0.059
34 | CTTACTTTCCGAGGTGTCCA (antisense; 2'-MOE modified, pattern not given here) [CAMSAP1-1739 MOE] | 0.588 | 0.336
35 | GCGACTATACGCGCAATATG (antisense; 2'-MOE modified, pattern not given here) [NC5 2′MOE] | 0.948 | 0.294
36 | CCAACACTTCGTGGGGTCCT (antisense; 2'-MOE modified, pattern not given here) [HPRT-666 MOE] | 0.856 | 0.334
37 | TTGCCATGCTGGCTCGGACT (antisense; 2'-MOE modified, pattern not given here) [CAMSAP1-2584 MOE] | 0.445 | 0.138
38 | CAGATAGCACCTTCAGCACT (antisense; 2'-MOE modified, pattern not given here) [CTNN2B-1294 MOE] | 0.497 | 0.254
39 | GGCATCCACCACGTCGTCCA (antisense; 2'-MOE modified, pattern not given here) [EGFR-3266 MOE] | 0.216 | 0.097
40 | TGTGATGGCCTCCCATCTCC (antisense; 2'-MOE modified, pattern not given here) [HPRT-332 MOE] | 0.312 | 0.238
41 | AGGTCTTGGCTTCGTGGAGC (antisense; 2'-MOE modified, pattern not given here) [MB21D1-522 MOE] | 0.547 | 0.150
42 | TCCAACACTTCGTGGGGTCC (antisense; 2'-MOE modified, pattern not given here) [HPRT-667 MOE] | 0.929 | 0.578
43 | CACCCACTTGGCAGACCATC (antisense; 2'-MOE modified, pattern not given here) [CTNN2B-1576 MOE] | 0.600 | 0.227
